These results are taken from US20050261282A1, “Treatment of basal ganglia-related movement disorders with 2,3-benzodiazepines” (Motac Neuroscience Limited Williams House, priority 2002, published 2005).

The conditions of data set [1]: cited from earlier work.
The test system of data set [2] is MPTP-lesioned marmoset. Nature of the data set: L-DOPA-induced dyskinesia score in the MPTP-lesioned marmoset model of Parkinson's disease. In kind it is in vivo, Marmosets (Callithrix jacchus). Particulars: Tofisopam 5-20 mg/kg oral with L-DOPA 15-17.5 mg/kg oral; dyskinesia score 0-4, every 30 minutes for 4 hours; FIGS. 4 and 5. On the procedure: The effect of Tofisopam on L-DOPA-induced dyskinesia was assessed in the MPTP-lesioned marmoset model of Parkinson's disease. 1.1.1 Preparation of MPTP-lesioned marmoset model of Parkinson's disease Marmosets (Callithrix jacchus) (bred in a closed colony at the University of Manchester) were rendered parkinsonian by subcutaneous injection of 2 mg kgl MPTP for 5 consecutive days. The marmosets were allowed to recover for a minimum of 10 weeks until their parkinsonism became stable. The degree of activity and disability before and after MPTP treatment was assessed using a combination of scales as described in section 1.1.2. Animals were then treated with L-DOPA for at least 3 weeks to prime them to elicit dyskinesia. (c) Dyskinesia—non-parametric measures based on the following scale: Dyskinesia score: 0=Absent, 1=Mild, fleeting, 2=Moderate, not interfering with normal activity, 3=Marked, at times interfering with normal activity, 4=Severe, continuous, replacing normal activity. The behavioural tests were assessed every 30 minutes for 4 hours, by post hoc analysis of video-recordings by an observer blinded to the treatment. Marmosets received all treatments as described in Table 1. The treatments were randomised such that on each day all marmosets received one of the treatments. There was at least 48 hours washout between treatments. [table]

The subject of data set [3] is MPTP-lesioned marmoset. Put plainly: Parkinsonian disability (mobility score) in the MPTP-lesioned marmoset model of Parkinson's disease. Particulars: Tofisopam 5-20 mg/kg oral with L-DOPA 15-17.5 mg/kg oral; mobility score 0-9, every 30 minutes for 4 hours; FIGS. 4 and 5. In kind it is in vivo, Marmosets (Callithrix jacchus). On the procedure:
The effect of Tofisopam on L-DOPA-induced dyskinesia was assessed in the MPTP-lesioned marmoset model of Parkinson's disease. 1.1.1 Preparation of MPTP-lesioned marmoset model of Parkinson's disease Marmosets (Callithrix jacchus) (bred in a closed colony at the University of Manchester) were rendered parkinsonian by subcutaneous injection of 2 mg kgl MPTP for 5 consecutive days. The marmosets were allowed to recover for a minimum of 10 weeks until their parkinsonism became stable. The degree of activity and disability before and after MPTP treatment was assessed using a combination of scales as described in section 1.1.2. Animals were then treated with L-DOPA for at least 3 weeks to prime them to elicit dyskinesia. […] The behavioural tests were assessed every 30 minutes for 4 hours, by post hoc analysis of video-recordings by an observer blinded to the treatment. […]

SMILES strings stand for the structures. Structures can show the parent of a compound that is named as a salt.

`CCN(CC)CCNC(=O)c1cc(Cl)c(N)cc1OC` [Metoclopramide hydrochloride, 4-amino-5-chloro-N-[2-(diethylamino)ethyl]-2-methoxy benzamide monohydrochloride monohydrate]: the solubility in water entry in data set [1] is “freely soluble in water”.

For the compound `CCC1C(C)=NN=C(c2ccc(OC)c(OC)c2)c2cc(OC)c(OC)cc21` (centres unmarked) [Tofisopam], the “severity of L-DOPA-induced dyskinesia” value in data set [2] is on record as “reduces the severity of L-DOPA-induced dyskinesia”. Further, in data set [3], the “antiparkinsonian action of L-DOPA (parkinsonian disability)” value is recorded as “without affecting the antiparkinsonian action”.

Consider `N[C@@H](Cc1ccc(O)c(O)c1)C(=O)O` [levodopa, (−)-3-(3,4-dihydroxy-phenyl)-L-alanine], for which, in data set [1] (alcohol), the solubility in alcohol entry is recorded as “insoluble in alcohol”. For the same compound, in data set [1], the solubility in water result is “slightly soluble in water”.
